Values joined by “and” are separate entries in the source; they are usually repeats but may differ in a detail not shown here. Identical values can stand only once. Like-named read-outs stand apart in the source and are kept apart here. Bounds are passed on as bounds.

The text below walks through data of patent US11135207B2, “Inhibitors of dihydroceramide desaturase for treating disease” (Centaurus Therapeutics, priority 2016, dated 2021).

The target in the experiment is Des1 (Homo sapiens (Human), UniProt O15121). As to the kind of experiment: Jurkat T cell measurement of conversion of dihydroceramide to ceramide. In kind it is cell-based. Conditions: for inhibition at 10 µM: read-out: Des1 % Inhib (10 μM); for IC50: read-out: Des1 IC50; for inhibition at 1 µM: read-out: Des1 % Inhib (1 μM); for inhibition at 0.5 µM: read-out: Des1 % Inhib (0.5 μM). As for the experimental part: Jurkat T Cell Measurement of Conversion of Dihydroceramide to Ceramide
Sequence of Des1 (O15121 whole entry): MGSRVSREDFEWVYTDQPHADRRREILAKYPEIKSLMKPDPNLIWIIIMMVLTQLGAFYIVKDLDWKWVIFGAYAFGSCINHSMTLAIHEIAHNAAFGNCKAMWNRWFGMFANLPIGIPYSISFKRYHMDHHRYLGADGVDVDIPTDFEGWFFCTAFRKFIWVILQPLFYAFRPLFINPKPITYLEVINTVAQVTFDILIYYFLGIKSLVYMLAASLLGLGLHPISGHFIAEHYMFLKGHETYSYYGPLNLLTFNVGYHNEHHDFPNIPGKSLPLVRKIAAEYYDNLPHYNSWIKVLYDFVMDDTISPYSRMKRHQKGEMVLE
Jurkat clone E6-1 cells were grown and then seeded at 10^6 cells/mL in a 96-well plate (400 μL in each well. The cells were administered 100 μL of cell culture media containing 50-μM NBD-C6-dihydroceramide (Des1 substrate), affording a final concentration of substrate of 10 μM. The cells were incubated with substrate at 4° C. for 30 minutes. Following the incubation at 4° C., the cell suspension was centrifuged at 1200 rpm for 3 minutes, and the cell pellet is resuspended in 400 μL of fresh media containing various concentrations of either fenretinide (known Des1 inhibitor control compound) or test article. The final concentrations of control compound and test compounds were tested in a range from 0-10 μM. The cells and compounds were incubated at 37° C. for 3 hours. Following the 3-hour incubation, the plate was centrifuged at 2500 g for 3 minutes at 4° C., followed by collection and transfer of 200 μL of the supernatant to a new 96-well plate with 300 μL of methanol an containing appropriate internal standards for liquid chromatography/tandem mass spectroscopy (LC/MS/MS) analysis (internal standard: 500 nM labetalol and 100 nM alprazolam). The samples were vortexed for 2 minutes followed by centrifugation at 3,220 g for 20 minutes. Following centrifugation, 200 μL of the supernatant was transferred to a new 96-well plate for LC-MS/MS analysis to determine the amount of NBD-C6-ceramide (Des1 product) produced. The assay was typically performed in duplicate. A reduction of at least 30% compared to vehicle control (0 μM test article) is indicative of an active compound, and a reduction of 75% compared to vehicle control is preferred.

[1] abbreviates: 10 μM compound, Jurkat clone E6-1 cells, NBD-C6-dihydroceramide substrate.
Where [2] appears, read: Jurkat clone E6-1 cells, NBD-C6-dihydroceramide substrate.
Setting [3] is: 1 μM compound, Jurkat clone E6-1 cells.
The mark [4] stands for this setting: 0.5 μM compound, Jurkat clone E6-1 cells.

Regarding `O=C(Nc1ccc(O)cc1)[C@@H]1C[C@H]1c1ccccc1` (relative stereo) [Example 6, (trans)-N-(4-hydroxyphenyl)-2-phenyl-cyclopropane-carboxamide], the inhibition at 10 µM under setting [1] turned out to be 76%. Besides, under setting [2], the IC50 came out at 0.59 µM. With `O=C(Nc1ccc(O)cc1)c1ccc2ccccc2c1` [Example 2, N-(4-hydroxy-phenyl)-2-naphthamide], the inhibition at 10 µM under setting [1] was determined as 78%. The half-maximal inhibitory concentration (IC50) under setting [2] turned out to be 0.84 µM. As for `C/C(=C\C(=O)Nc1ccc(O)cc1)c1ccccc1` [Example 3, (E)-N-(4-hydroxy-phenyl)-3-phenylbut-2-enamide], the inhibition at 10 µM under setting [1] stood at 49%. Besides, under setting [2], the IC50 turned out to be 4.46 µM. For `O=C(/C=C/c1ccccc1)Nc1ccc(O)cc1` [Example 4, N-(4-hydroxy-phenyl)-cinnamide], under setting [1], the inhibition at 10 µM was 85%. Moreover, the 50% inhibitory concentration (IC50) under setting [2] is 0.44 µM.

Consider `O=C(Nc1ccc(O)cc1)c1ccc(-c2ccccc2)cc1` [Example 5, N-(4-hydroxy-phcnyl)-[1,1′-biphenyl]-4-carboxamide], for which the inhibition at 10 µM under setting [1] was 88%. Besides, the IC50 under setting [2] was 0.05 µM.

With `O=C(Nc1ccc(O)cn1)c1ccc2ccccc2c1` [Example 7, N-(5-hydroxy-pyridin-2-yl)-2-naphth-amide], the inhibition at 1 µM under setting [3] was 79.8%. Moreover, under setting [2], the IC50 was 0.18 µM. On the same counts, the results for `O=C(/C=C/c1ccccc1)Nc1ccc(O)cn1` [Example 8, N-(5-hydroxy-pyridin-2-yl)-cinnamide] are 85.9% and 0.06 µM. Turning to `O=C(Nc1ccc(O)cn1)c1ccc(-c2ccccc2)cc1` [Example 9, N-(5-hydroxy-pyridin-2-yl)-(1,1′-biphenyl)-4-carboxamide], the inhibition at 1 µM under setting [3] worked out at 93.3%. In addition, the IC50 under setting [2] is 0.01 µM and 0.026 µM.

Take `O=C(Nc1ccc(O)cn1)[C@@H]1C[C@H]1c1ccccc1` [Example 10, (trans)-N-(5-hydroxy-pyridin-2-yl)-2-phenyl-cyclopropane-carboxamide]: under setting [3], the inhibition at 1 µM stood at 67.2%. Further, the IC50 under setting [2] is 0.23 µM. Consider `CC(C)=CC(=O)Nc1ccc(O)cc1` [Example 11, N-(4-hydroxy-phenyl)-3-methyl-2-butenamide], for which the inhibition at 10 µM under setting [1] amounted to 20%. Besides, the IC50 under setting [2] was over 10 µM. For `O=C(Nc1ccc(O)cc1)c1cccc2ccccc12` [Example 13, N-(4-hydroxy-phenyl)-1-napthamide], in that order: 38% and 8.2 µM.

As to `O=C(Nc1ccc(O)cc1)c1ccc2[nH]ncc2c1` [Example 14, N-(4-hydroxy-phenyl)-1H-indazole-5-carboxamide], the inhibition at 10 µM under setting [1] was determined as 14.8%. Besides, the IC50 under setting [2] was over 10 µM. As to `O=C(Nc1ccc(O)cc1)c1ccc(C2CCCCC2)cc1` [Example 15, N-(4-hydroxy-phenyl)-4-cyclohexyl-benzamide], the half-inhibitory concentration (IC50) under setting [2] amounted to 0.09 µM. Also, the inhibition at 10 µM (Jurkat) amounted to 87%. For the molecule `O=C(Nc1ccc(O)cc1)c1ccc(-c2ccc(O)cc2)cc1` [Example 16, N-(4-hydroxy-phenyl)-4′-hydroxy-biphenyl-4-carboxamide], the inhibition at 10 µM under setting [1] came out at 54%. As for `O=C(Nc1ccc(O)cn1)c1cccc2ccccc12` [Example 19, N-(5-hydroxy-pyridin-2-yl)-1-napthamide], the inhibition at 1 µM under setting [3] was determined as 31%. As for `O=C(Nc1ccc(O)cn1)c1ccc(C2CCCCC2)cc1` [Example 20, N-(5-hydroxy-pyridin-2-yl)-4-cyclohexyl-benzamide], the IC50 under setting [2] turned out to be 0.004 µM. Besides, the inhibition at 1 µM (Jurkat) is 95.9%.

As to `O=C(Nc1ccc(O)cn1)c1ccc(-c2ccc(O)cc2)cc1` [Example 21, N-(5-hydroxy-pyridin-2-yl)-4′-hydroxy-biphenyl-4-carboxamide], the inhibition at 0.5 µM under setting [4] was 62.8%. On to `COc1ccc(-c2ccc(C(=O)Nc3ccc(O)cn3)cc2)cc1` [Example 22, N-(5-hydroxy-pyridin-2-yl)-4′-methoxy-biphenyl-4-carboxamide], for which the inhibition at 1 µM under setting [3] was 95.4%. The IC50 under setting [2] turned out to be 0.014 µM. Regarding `N#Cc1ccc(-c2ccc(C(=O)Nc3ccc(O)cn3)cc2)cc1` [Example 23, N-(5-hydroxy-pyridin-2-yl)-4′-cyano-biphenyl-4-carboxamide], the inhibition at 1 µM under setting [3] was found to be 96.3%. Further, the IC50 under setting [2] is 0.005 µM. For `O=C(Nc1ccc(O)cn1)c1ccc(-c2ccc(Cl)cc2)cc1` [Example 24, N-(5-hydroxy-pyridin-2-yl)-4′-chloro-biphenyl-4-carboxamide], in that order: 96.1% and 0.003 µM.

In the case of `O=C(Nc1ccc(O)cn1)c1ccccc1` [Example 25, N-(5-hydroxy-pyridin-2-yl)-benzamide], the inhibition at 1 µM under setting [3] was determined as 4.44%. For `COc1ccc(C(=O)Nc2ccc(O)cn2)cc1` [Example 26, N-(5-hydroxy-pyridin-2-yl)-4-methoxy-benzamide], under setting [3], the inhibition at 1 µM turned out to be 74.5%. Further, the IC50 under setting [2] was 0.24 µM.

On to `CC(C)c1ccc(C(=O)Nc2ccc(O)cn2)cc1` [Example 27, N-(5-hydroxy-pyridin-2-yl)-4-isopropyl-benzamide], for which, under setting [2], the IC50 is 0.016 µM. Regarding `O=C(Nc1ccc(O)cn1)[C@H]1CC[C@H](c2ccccc2)CC1` [Example 28, (1r,4r)-N-(5-hydroxy-pyridin-2-yl)-4-phenyl-cyclohexane-1-carboxamide], under setting [3], the inhibition at 1 µM amounted to 96.2%. Also, the IC50 under setting [2] was determined as 0.005 µM. Turning to `CCCCCCCC(=O)Nc1ccc(O)cn1` [Example 29, N-(5-hydroxy-pyridin-2-yl)-octanamide], the inhibition at 1 µM under setting [3] was found to be 95.7%. The IC50 under setting [2] was determined as 0.006 µM. Consider `O=C(Nc1ccc(O)cn1)C1CCCCC1` [Example 30, N-(5-hydroxy-pyridin-2-yl)-cyclohexane-carboxamide], for which, under setting [4], the inhibition at 0.5 µM turned out to be 49.5%. Consider `CC(C)CCCCCC(=O)Nc1ccc(O)cn1` [Example 31, N-(5-hydroxy-pyridin-2-yl)-7-methyloctan-amide], for which the IC50 under setting [2] was 0.001 µM. In addition, where the note is “Jurkat”, the inhibition at 0.5 µM worked out at 91%. For `O=C(Nc1ccc(O)cn1)[C@H]1CC[C@H](c2ccc(Cl)cc2)CC1` [Example 32, (1r,4r)-4-(4-chlorophenyl)-N-(5-hydroxy-pyridin-2-yl)-cyclohexane-1-carboxamide], under setting [2], the IC50 is 0.001 µM. Moreover, under “Jurkat”, the inhibition at 0.5 µM amounted to 96.8%. On to `O=C(Nc1ccc(O)cn1)c1ccc(-c2ccccn2)cc1` [Example 33, N-(5-hydroxy-pyridin-2-yl)-4-(pyridin-2-yl)benzamide], for which the inhibition at 0.5 µM under setting [4] was found to be 71.1%. `O=C(Nc1ccc(O)cn1)c1ccc(-c2cccnc2)cc1` [Example 34, N-(5-hydroxy-pyridin-2-yl)-4-(pyridin-3-yl)benzamide]: under setting [4], the inhibition at 0.5 µM amounted to 85.6%. In the case of `CC(C)(C)c1ccc(C(=O)Nc2ccc(O)cn2)cc1` [Example 35, 4-(tert-butyl)-N-(5-hydroxy-pyridin-2-yl)-benzamide], the inhibition at 0.5 µM under setting [4] was determined as 90%. For the same molecule, the inhibition at 1 µM under setting [3] was determined as 95.7%. Also, the IC50 under setting [2] came to 0.004 µM. With `COCCCCCC(=O)Nc1ccc(O)cn1` [Example 36, N-(5-hydroxy-pyridin-2-yl)-6-methoxy-hexanamide], the inhibition at 0.5 µM under setting [4] stood at 44.8%. For the molecule `CC(C)OCCCCC(=O)Nc1ccc(O)cn1` [Example 37, N-(5-hydroxy-pyridin-2-yl)-5-isopropoxy-pentanamide], under setting [4], the inhibition at 0.5 µM is 93.7%. The IC50 under setting [2] was 0.021 µM. `O=C(Nc1ccc(O)cn1)c1ccc(-c2ccccc2Cl)cc1` [Example 38, 2′-chloro-N-(5-hydroxy-pyridin-2-yl)-[1,1′-biphenyl]-4-carboxamide]: the inhibition at 0.5 µM under setting [4] came out at 95.4%. Moreover, the IC50 under setting [2] is 0.019 µM.

Consider `O=C(Nc1ccc(O)cn1)c1ccc(-c2c(Cl)cccc2Cl)cc1` [Example 39, 2′,6′-dichloro-N-(5-hydroxy-pyridin-2-yI)-[1,1′-biphenyl]-4-carboxamide], for which, under setting [4], the inhibition at 0.5 µM was 65.9%.

Take `CC(C)O[C@H]1CC[C@H](C(=O)Nc2ccc(O)cn2)CC1` [Example 40, (1r,4r)-N-(5-hydroxypyridin-2-yl)-4-iso-propoxycyclo-hexane-1-carboxamide]: the inhibition at 0.5 µM under setting [4] was 92.6%. In addition, under setting [2], the IC50 worked out at 0.021 µM. In the case of `CC(C)O[C@H]1CC[C@@H](C(=O)Nc2ccc(O)cn2)CC1` [Example 41, (1s,4s)-N-(5-hydroxypyridin-2-yl)-4-iso-propoxycyclo-hexane-1-carboxamide], the inhibition at 0.5 µM under setting [4] was 81.3%. For the same molecule, the IC50 under setting [2] is 0.088 µM. Turning to `CCc1ccc(C(=O)Nc2ccc(O)cn2)cc1` [Example 42, 4-ethyl-N-(5-hydroxy-pyridin-2-yl)-benzamide], under setting [4], the inhibition at 0.5 µM came out at 85.5%. Also, the half-maximal inhibitory concentration (IC50) under setting [2] was 0.13 µM. `Cc1ccc(C(=O)Nc2ccc(O)cn2)cc1` [Example 43, N-(5-hydroxy-pyridin-2-yl)-4-methylbenz-amide]: the inhibition at 0.5 µM under setting [4] was found to be 59.3%.
